We go through one compound from ChEMBL document CHEMBL4330129 (Bioorg Med Chem, 2019).

Data set [1] in a line: Kinetic solubility of the compound at pH 7.4 by CLND method. The class given is physicochemical. To be noted: buffer, read-out: Kinetic_solubility.
Data set [2] is described as follows: Drug metabolism in rat assessed as (2S)-2-amino-5-[[(1R)-2-(carboxymethylamino)-1-[3-[[2-(dimethylamino)-3,4-dioxo-cyclobuten-1-yl]-methyl-amino]propylcarbamothioylsulfanylmethyl]-2-oxo-ethyl]amino]-5-oxo-pentanoic acid formation at 2 mg/kg, po. The data set is classed as ADME, organism-based. To be noted: in vivo.
The subject of data set [3] is Mus musculus. Briefly: Antioxidant activity in C57BL/6J mouse model of cigarette smoking-induced oxidative stress assessed as inhibition of neutrophil infiltration at 0.1 to 100 umol/kg, po dosed 24 hrs prior to cigarette smoking followed by qd dosing with cigarette smoking for 3 days by Wright-Giemsa staining based hemocytometry. The class given is functional, organism-based.

The nature of data set [4]: Drug metabolism in rat assessed as (2R)-2-acetamido-3-[3-[[2-(dimethylamino)-3,4-dioxo-cyclobuten-1-yl]-methyl-amino]propylcarbamothioylsulfanyl]propanoic acid formation at 2 mg/kg, po. The data set is classed as ADME, organism-based. Particulars: in vivo.
Data set [5] in a line: Binding affinity to FLAG/His-tagged Keap1 (unknown origin)/biotinylated full-length FLAG/His/Tev/Avi-tagged Cul3 (unknown origin) expressed in baculovirus infected Sf9 insect cells measured after 1 hr by TR-FRET assay. More on the design: species or system Homo sapiens. (In general: In TR-FRET formats the signal depends on donor and acceptor labels being close together.)
The nature of data set [6]: Stability of the compound at 23 degC using crystalline solid sample measured >3 years by 1H-NMR analysis. The data set is classed as physicochemical.
The next data set concerns the target BACH1/MafK (Homo sapiens, UniProt O14867+O60675). Nature of the data set: Inhibition of Bach1-Mafk interaction (unknown origin) by luciferase reporter gene based enzyme fragment complementation assay. The class given is protein assay. In general terms: A reporter such as luciferase makes a cellular process visible.
Data set [7] deals with Mus musculus. Briefly: Antioxidant activity in po dosed C57BL/6J mouse model of cigarette smoking-induced oxidative stress assessed as inhibition of neutrophil infiltration dosed 24 hrs prior to cigarette smoking followed by qd dosing with cigarette smoking for 3 days by Wright-Giemsa staining based hemocytometry. The data set is classed as functional, organism-based.
A short description of data set [8]: Solubility of the compound in FaSSIF at pH 6.5 using solid sample. The class given is physicochemical.
Data set [9] can be described thus: Lipophilicity, log D of the compound at pH 7.4 by chromatographic method. Particulars: buffer. The class given is physicochemical.
Data set [10] relates to Mus musculus. Nature of the data set: Antioxidant activity in C57BL/6J mouse model of cigarette smoking-induced oxidative stress assessed as inhibition of mononuclear cell infiltration at 0.1 to 100 umol/kg, po dosed 24 hrs prior to cigarette smoking followed by qd dosing with cigarette smoking for 3 days by Wright-Giemsa staining based hemocytometry. The class given is functional, organism-based.

Data set [11] has as its target Kelch-like ECH-associated protein 1 (Homo sapiens) (UniProt Q14145). Nature of the data set: Binding affinity to wild-type human N-terminal His6-tagged Keap1 (35 to 178 residues) expressed in baculovirus infected Sf9 insect cells assessed as cysteine-compound adduct formation at 15-fold molar excess measured after 1 hr by RP-LC/MS/MS analysis.
Data set [12] has as its system Mus musculus. Briefly: Antioxidant activity in C57BL/6J mouse model of cigarette smoking-induced oxidative stress assessed as inhibition of total cell infiltration at 0.1 to 100 umol/kg, po dosed 24 hrs prior to cigarette smoking followed by qd dosing with cigarette smoking for 3 days by Wright-Giemsa staining based hemocytometry. The data set is classed as functional, organism-based.

In data set [13] the test system is Kelch-like ECH-associated protein 1 (Homo sapiens), Q14145 [C151S]. Briefly: Binding affinity to human N-terminal His6-tagged Keap1 C151S mutant (35 to 182 residues) expressed in baculovirus infected Sf9 insect cells assessed as cysteine-compound adduct formation at 15-fold molar excess measured after 1 hr by RP-LC/MS/MS analysis.
Kelch-like ECH-associated protein 1 (Homo sapiens), Q14145 [C151S], sequence (Q14145 whole entry C151S, the tested form may be a part): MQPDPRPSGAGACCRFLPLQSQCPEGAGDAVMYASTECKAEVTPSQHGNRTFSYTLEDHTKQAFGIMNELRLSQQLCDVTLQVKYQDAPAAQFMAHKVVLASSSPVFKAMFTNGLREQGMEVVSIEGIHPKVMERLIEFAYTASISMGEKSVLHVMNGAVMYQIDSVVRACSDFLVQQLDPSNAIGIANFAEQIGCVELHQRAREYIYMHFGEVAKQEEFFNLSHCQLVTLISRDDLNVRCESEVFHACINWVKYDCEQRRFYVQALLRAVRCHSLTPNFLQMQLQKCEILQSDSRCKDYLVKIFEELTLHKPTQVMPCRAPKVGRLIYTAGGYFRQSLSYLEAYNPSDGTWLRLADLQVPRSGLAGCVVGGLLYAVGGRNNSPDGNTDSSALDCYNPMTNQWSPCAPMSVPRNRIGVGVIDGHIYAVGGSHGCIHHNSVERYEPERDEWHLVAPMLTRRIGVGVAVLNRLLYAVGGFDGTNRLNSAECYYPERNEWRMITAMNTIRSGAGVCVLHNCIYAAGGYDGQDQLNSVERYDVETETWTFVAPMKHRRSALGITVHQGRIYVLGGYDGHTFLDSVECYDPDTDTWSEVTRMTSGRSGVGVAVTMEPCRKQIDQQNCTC
For data set [14], the species on record is Homo sapiens. Briefly: (§1) Activation of Keap1/Cul3/Nrf2 in human BEAS2B cells assessed as increase in NQO1 levels measured after 48 hrs. The class given is cell-based.
A short description of data set [15]: as §1. Particulars: BEAS-2B. The data set is classed as cell-based.
The target in another data set is Keap1/Nrf2 (Homo sapiens, UniProt Q14145+Q16236). Nature of the data set: Binding affinity to FLAG/His-tagged Keap1 (unknown origin)/biotinylated full-length FLAG/His/Tev/Avi-tagged NRF2 (unknown origin) expressed in baculovirus infected Sf9 insect cells measured after 1 hr by TR-FRET assay.
Keap1/Nrf2, sequence (Q16236 whole entry): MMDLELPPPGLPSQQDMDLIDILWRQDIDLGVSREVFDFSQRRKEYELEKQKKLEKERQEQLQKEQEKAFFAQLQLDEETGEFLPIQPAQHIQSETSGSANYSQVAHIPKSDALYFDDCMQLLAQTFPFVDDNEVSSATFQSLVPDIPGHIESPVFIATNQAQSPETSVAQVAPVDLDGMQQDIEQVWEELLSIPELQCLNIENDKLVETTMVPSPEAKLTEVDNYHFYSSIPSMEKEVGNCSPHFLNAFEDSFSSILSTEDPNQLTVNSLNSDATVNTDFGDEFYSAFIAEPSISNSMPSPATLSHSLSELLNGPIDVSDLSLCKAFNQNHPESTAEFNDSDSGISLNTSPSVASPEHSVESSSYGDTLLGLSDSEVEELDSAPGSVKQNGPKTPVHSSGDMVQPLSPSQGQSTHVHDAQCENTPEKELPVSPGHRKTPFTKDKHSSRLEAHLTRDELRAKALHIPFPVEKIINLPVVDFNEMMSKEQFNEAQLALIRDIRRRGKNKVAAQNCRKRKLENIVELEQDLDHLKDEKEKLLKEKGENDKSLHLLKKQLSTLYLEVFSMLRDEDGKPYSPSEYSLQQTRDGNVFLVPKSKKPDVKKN
Keap1/Nrf2, sequence (Q14145 whole entry): as the sequence (Q14145 whole entry C151S, the tested form may be a part) above, with S151C counted along it
The species named for data set [16] is Homo sapiens. Nature of the data set: Activation of Keap1/Cul3/Nrf2 in NHBE cells assessed as induction of HO-1 gene expression at 10 uM after 24 hrs by RT-PCR analysis relative to SFN. The class given is cell-based.
A short description of data set [17]: Apparent permeability across apical to basolateral side in MDCK-MDR1. The class given is ADME, cell-based, Canis lupus familiaris. To be noted: dog.
A short description of data set [18]: Stability of the compound at 23 degC using crystalline solid sample measured >3 years by LC/MS analysis. The data set is classed as physicochemical.
Data set [19] can be described thus: Apparent permeability across basolateral to apical side in MDCK-MDR1. The data set is classed as ADME, cell-based, Canis lupus familiaris. Particulars: dog.

Converted amounts (≈) assume the structure as drawn. The source made the active and inactive calls. The calls are words filed in the database; no cut-off is given here. Some results are limits rather than exact numbers.

Kelch-like ECH-associated protein 1 (Homo sapiens), sequence (Q14145 whole entry, the tested form may be a part): as the sequence (Q14145 whole entry C151S, the tested form may be a part) above, with S151C counted along it
BACH1/MafK, sequence (O60675 whole entry, the tested form may be a part): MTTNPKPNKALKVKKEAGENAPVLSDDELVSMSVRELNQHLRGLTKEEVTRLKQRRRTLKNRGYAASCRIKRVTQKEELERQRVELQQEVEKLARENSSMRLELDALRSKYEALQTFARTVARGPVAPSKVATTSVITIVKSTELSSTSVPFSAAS
BACH1/MafK, sequence (O14867 whole entry, the tested form may be a part): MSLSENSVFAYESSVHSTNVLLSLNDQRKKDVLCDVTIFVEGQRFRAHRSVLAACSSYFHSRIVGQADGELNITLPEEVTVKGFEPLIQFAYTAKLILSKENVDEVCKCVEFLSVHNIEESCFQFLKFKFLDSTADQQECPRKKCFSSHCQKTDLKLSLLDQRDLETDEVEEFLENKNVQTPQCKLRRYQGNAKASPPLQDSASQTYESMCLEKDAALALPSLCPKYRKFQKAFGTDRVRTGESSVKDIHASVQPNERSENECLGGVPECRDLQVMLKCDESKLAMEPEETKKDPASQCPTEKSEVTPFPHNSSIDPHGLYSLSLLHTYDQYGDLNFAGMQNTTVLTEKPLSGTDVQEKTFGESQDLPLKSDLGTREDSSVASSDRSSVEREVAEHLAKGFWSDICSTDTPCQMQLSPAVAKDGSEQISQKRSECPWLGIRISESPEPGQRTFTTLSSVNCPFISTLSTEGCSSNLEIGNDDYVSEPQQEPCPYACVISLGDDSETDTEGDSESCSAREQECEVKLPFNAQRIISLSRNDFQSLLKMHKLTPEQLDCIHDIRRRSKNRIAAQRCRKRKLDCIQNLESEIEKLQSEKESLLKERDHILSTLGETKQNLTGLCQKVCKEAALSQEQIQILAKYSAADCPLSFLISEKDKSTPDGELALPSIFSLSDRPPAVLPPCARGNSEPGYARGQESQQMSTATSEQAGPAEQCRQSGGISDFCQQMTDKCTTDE

In general, pIC50 refers to the IC50 on a negative log10 scale, so that one unit is a factor of ten. The IC50 is the concentration that inhibits the measured activity by half. A high value points to weaker potency. The term solubility (thermodynamic) denotes the concentration in solution at equilibrium with solid. What is called chromatographic logD is a lipophilicity value derived from retention on a column. A low value points to lower lipophilicity. The EC50 is the concentration at which the effect is half-maximal. What is called Papp A→B is how fast a substance crosses the layer from the apical side. What is called Papp B→A is the apparent permeability from the basolateral to the apical side of a cell layer. Consider `CN(C)c1c(N(C)CCCN=C=S)c(=O)c1=O`, for which the solubility kinetic in [1] was at least 394 µM. For the same compound, the Drug metabolism entry in data set [2] and in data set [4] was “Metabolite_Detected” in each case. Besides, the inhibition entry in the data set on Mus musculus [3], in the data set on Mus musculus [10] and in the data set on Mus musculus [12] was “Active” throughout. Besides, the pIC50 in [5] is reported as 4.3. Further, the Stability entry in data set [6] and in data set [18] was “Stable” each time. In addition, the IC50 against BACH1/MafK was 3.16 µM; at Keap1/Nrf2, over 100 µM. Further, in the data set on Mus musculus [7], the inhibition result was “Dose-dependent effect”. This compound came in with a thermodynamic solubility in data set [8] of 8000 µg/mL (≈ 31.6 mM). Also, the chromatographic logD in data set [9] was in the range of 2.14 to 2.39. Further, the result in [11] and in data set [13] was Active. Moreover, the Activity entry in the data set listed under Homo sapiens [14] is “Dose-dependent effect”. The 50% effective concentration (EC50) in data set [15] is 1.58 to 1.66 µM. The fold change (FC) in the data set listed under Homo sapiens [16] is 24.9 to 25. In addition, in data set [17], the Papp A→B came out at 12.5 ×10⁻⁶ cm/s. Besides, the Papp B→A in data set [19] was 7.67 ×10⁻⁶ cm/s.
